Measured values taken from patent US10167262B2, “Herbicidal substituted 3-arylpyrazoles” (FMC CORPORATION, priority 2014, dated 2019).

Experiments:
Assay in all cases: Test E pre-/postemergence greenhouse test, plant response rating 0-100
Type in all cases: in vivo
[1] = test system: hairy beggarticks (Bidens pilosa); conditions: scale 0 to 100; for Beggarticks plant response rating: Preemergence
Summary of the method: (§1)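 Pre- and postemergence sprays, vehicle non-phytotoxic solvent containing surfactant; postemergence plants 2–18 cm tall at the 1–4-leaf stage. Scored against controls after 14 to 21 days in a greenhouse, 0 being no effect and 100 complete control.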

[2] = test system: sandbur (southern sandbur, Cenchrus echinatus); conditions: scale 0 to 100; for Sandbur plant response rating: Preemergence
Summary of the method: as §1

[3] = test system: field bindweed (Convolvulus arvensis); conditions: scale 0 to 100; for Field Bindweed plant response rating: Preemergence
Summary of the method: as §1

[4] = test system: Italian ryegrass (Lolium multiflorum); conditions: scale 0 to 100; for Ryegrass, Italian plant response rating: Preemergence
Summary of the method: as §1

[5] = test system: waterhemp (common waterhemp, Amaranthus rudis); conditions: scale 0 to 100; for Waterhemp plant response rating: Preemergence
Summary of the method: as §1

[6] = test system: barnyardgrass (Echinochloa crus-galli); conditions: scale 0 to 100; for Barnyardgrass plant response rating: Preemergence
Summary of the method: as §1

[7] = test system: Brazilian crabgrass (Digitaria horizontalis); conditions: scale 0 to 100; for Crabgrass, Brazil plant response rating: Preemergence
Summary of the method: as §1

soybean (Glycine max) = conditions: scale 0 to 100; for Soybean plant response rating: Preemergence
Summary of the method: as §1

[8] = test system: wild poinsettia (Euphorbia heterophylla); conditions: scale 0 to 100; for Poinsettia, Wild plant response rating: Preemergence
Summary of the method: as §1

[9] = test system: fall panicum (Panicum dichotomiflorum); conditions: scale 0 to 100; for Panicum, Fall plant response rating: Preemergence
Summary of the method: as §1

corn (Zea mays) = conditions: scale 0 to 100; for Corn plant response rating: Preemergence
Summary of the method: as §1

[10] = test system: dayflower (Virginia (VA) dayflower, Commelina virginica); conditions: scale 0 to 100; for Dayflower, VA plant response rating: Preemergence
Summary of the method: as §1

C#CCn1cc(C(=O)c2ccccc2)c(-c2cc(Cl)cc(Cl)c2)n1 [Compound 39, [3-(3,5-dichlorophenyl)-1-(2-propyn-1-yl)-1H-pyrazol-4-yl]phenylmethanone]
95%: pest or weed control at 250 g/ha ([1]; Bidens pilosa, post-emergence, Postemergence, 250 g ai/ha) | pest or weed control at 500 g/ha ([1]; Bidens pilosa, post-emergence, Postemergence, 500 g ai/ha) | pest or weed control at 250 g/ha ([5]; Amaranthus tuberculatus, post-emergence, Postemergence, 250 g ai/ha)
10%: pest or weed control at 250 g/ha ([3]; Convolvulus arvensis, post-emergence, Postemergence, 250 g ai/ha) | pest or weed control at 500 g/ha ([3]; Convolvulus arvensis, post-emergence, Postemergence, 500 g ai/ha) | pest or weed control at 500 g/ha ([6]; Echinochloa crus-galli, post-emergence, Postemergence, 500 g ai/ha) | plant injury at 250 g/ha (soybean (Glycine max); Glycine max, post-emergence, Postemergence, 250 g ai/ha) | pest or weed control at 500 g/ha ([8]; Euphorbia heterophylla, post-emergence, Postemergence, 500 g ai/ha, read-out: Plant response rating, Poinsettia, Wild)
0: Beggarticks plant response rating ([1]; 62 g ai/ha) | Beggarticks plant response rating ([1]; 125 g ai/ha) | Beggarticks plant response rating ([1]; 250 g ai/ha) | Beggarticks plant response rating ([1]; 500 g ai/ha) | Sandbur plant response rating ([2]; 62 g ai/ha) | Sandbur plant response rating ([2]; 125 g ai/ha) | Sandbur plant response rating ([2]; 250 g ai/ha) | Sandbur plant response rating ([2]; 500 g ai/ha) | Field Bindweed plant response rating ([3]; 62 g ai/ha) | Field Bindweed plant response rating ([3]; 125 g ai/ha) | Field Bindweed plant response rating ([3]; 250 g ai/ha) | Field Bindweed plant response rating ([3]; 500 g ai/ha) | Ryegrass, Italian plant response rating ([4]; 62 g ai/ha) | Ryegrass, Italian plant response rating ([4]; 125 g ai/ha) | Ryegrass, Italian plant response rating ([4]; 250 g ai/ha) | Ryegrass, Italian plant response rating ([4]; 500 g ai/ha) | Barnyardgrass plant response rating ([6]; 62 g ai/ha) | Barnyardgrass plant response rating ([6]; 125 g ai/ha) | Barnyardgrass plant response rating ([6]; 250 g ai/ha) | Barnyardgrass plant response rating ([6]; 500 g ai/ha) | Crabgrass, Brazil plant response rating ([7]; 62 g ai/ha) | Crabgrass, Brazil plant response rating ([7]; 125 g ai/ha) | Crabgrass, Brazil plant response rating ([7]; 250 g ai/ha) | Crabgrass, Brazil plant response rating ([7]; 500 g ai/ha) | Soybean plant response rating (soybean (Glycine max); 62 g ai/ha) | Soybean plant response rating (soybean (Glycine max); 125 g ai/ha) | Soybean plant response rating (soybean (Glycine max); 250 g ai/ha) | Soybean plant response rating (soybean (Glycine max); 500 g ai/ha) | Poinsettia, Wild plant response rating ([8]; 62 g ai/ha) | Poinsettia, Wild plant response rating ([8]; 125 g ai/ha) | Poinsettia, Wild plant response rating ([8]; 250 g ai/ha) | Poinsettia, Wild plant response rating ([8]; 500 g ai/ha) | Panicum, Fall plant response rating ([9]; 62 g ai/ha) | Panicum, Fall plant response rating ([9]; 250 g ai/ha) | Corn plant response rating (corn (Zea mays); 62 g ai/ha) | Corn plant response rating (corn (Zea mays); 125 g ai/ha) | Corn plant response rating (corn (Zea mays); 250 g ai/ha) | Corn plant response rating (corn (Zea mays); 500 g ai/ha) | Dayflower, VA plant response rating ([10]; 62 g ai/ha) | Dayflower, VA plant response rating ([10]; 125 g ai/ha) | Dayflower, VA plant response rating ([10]; 250 g ai/ha) | Dayflower, VA plant response rating ([10]; 500 g ai/ha)
85%: pest or weed control at 62 g/ha ([1]; Bidens pilosa, post-emergence, Postemergence, 62 g ai/ha)
0%: pest or weed control at 31 g/ha ([2]; Cenchrus echinatus, post-emergence, Postemergence, 31 g ai/ha) | pest or weed control at 62 g/ha ([2]; Cenchrus echinatus, post-emergence, Postemergence, 62 g ai/ha) | pest or weed control at 125 g/ha ([2]; Cenchrus echinatus, post-emergence, Postemergence, 125 g ai/ha) | pest or weed control at 250 g/ha ([2]; Cenchrus echinatus, post-emergence, Postemergence, 250 g ai/ha) | pest or weed control at 500 g/ha ([2]; Cenchrus echinatus, post-emergence, Postemergence, 500 g ai/ha) | pest or weed control at 31 g/ha ([3]; Convolvulus arvensis, post-emergence, Postemergence, 31 g ai/ha) | pest or weed control at 62 g/ha ([3]; Convolvulus arvensis, post-emergence, Postemergence, 62 g ai/ha) | pest or weed control at 125 g/ha ([3]; Convolvulus arvensis, post-emergence, Postemergence, 125 g ai/ha) | pest or weed control at 31 g/ha ([4]; Lolium multiflorum, post-emergence, Postemergence, 31 g ai/ha) | pest or weed control at 62 g/ha ([4]; Lolium multiflorum, post-emergence, Postemergence, 62 g ai/ha) | pest or weed control at 125 g/ha ([4]; Lolium multiflorum, post-emergence, Postemergence, 125 g ai/ha) | pest or weed control at 250 g/ha ([4]; Lolium multiflorum, post-emergence, Postemergence, 250 g ai/ha) | pest or weed control at 500 g/ha ([4]; Lolium multiflorum, post-emergence, Postemergence, 500 g ai/ha) | pest or weed control at 31 g/ha ([6]; Echinochloa crus-galli, post-emergence, Postemergence, 31 g ai/ha) | pest or weed control at 62 g/ha ([6]; Echinochloa crus-galli, post-emergence, Postemergence, 62 g ai/ha) | pest or weed control at 125 g/ha ([6]; Echinochloa crus-galli, post-emergence, Postemergence, 125 g ai/ha) | pest or weed control at 250 g/ha ([6]; Echinochloa crus-galli, post-emergence, Postemergence, 250 g ai/ha) | pest or weed control at 31 g/ha ([7]; Digitaria horizontalis, post-emergence, Postemergence, 31 g ai/ha, read-out: Plant response rating, Crabgrass, Brazil) | pest or weed control at 62 g/ha ([7]; Digitaria horizontalis, post-emergence, Postemergence, 62 g ai/ha, read-out: Plant response rating, Crabgrass, Brazil) | pest or weed control at 125 g/ha ([7]; Digitaria horizontalis, post-emergence, Postemergence, 125 g ai/ha, read-out: Plant response rating, Crabgrass, Brazil) | pest or weed control at 250 g/ha ([7]; Digitaria horizontalis, post-emergence, Postemergence, 250 g ai/ha, read-out: Plant response rating, Crabgrass, Brazil) | plant injury at 31 g/ha (soybean (Glycine max); Glycine max, post-emergence, Postemergence, 31 g ai/ha) | plant injury at 62 g/ha (soybean (Glycine max); Glycine max, post-emergence, Postemergence, 62 g ai/ha) | plant injury at 125 g/ha (soybean (Glycine max); Glycine max, post-emergence, Postemergence, 125 g ai/ha) | pest or weed control at 31 g/ha ([8]; Euphorbia heterophylla, post-emergence, Postemergence, 31 g ai/ha, read-out: Plant response rating, Poinsettia, Wild) | pest or weed control at 62 g/ha ([8]; Euphorbia heterophylla, post-emergence, Postemergence, 62 g ai/ha, read-out: Plant response rating, Poinsettia, Wild) | pest or weed control at 125 g/ha ([8]; Euphorbia heterophylla, post-emergence, Postemergence, 125 g ai/ha, read-out: Plant response rating, Poinsettia, Wild) | pest or weed control at 250 g/ha ([8]; Euphorbia heterophylla, post-emergence, Postemergence, 250 g ai/ha, read-out: Plant response rating, Poinsettia, Wild) | pest or weed control at 31 g/ha ([9]; Panicum dichotomiflorum, post-emergence, Postemergence, 31 g ai/ha) | pest or weed control at 62 g/ha ([9]; Panicum dichotomiflorum, post-emergence, Postemergence, 62 g ai/ha) | pest or weed control at 125 g/ha ([9]; Panicum dichotomiflorum, post-emergence, Postemergence, 125 g ai/ha) | pest or weed control at 250 g/ha ([9]; Panicum dichotomiflorum, post-emergence, Postemergence, 250 g ai/ha) | pest or weed control at 500 g/ha ([9]; Panicum dichotomiflorum, post-emergence, Postemergence, 500 g ai/ha) | Corn plant response rating (crop injury, 0 = no effect, 100 = complete kill) at 31 g/ha (corn (Zea mays); Zea mays, post-emergence, Postemergence, 31 g ai/ha) | Corn plant response rating (crop injury, 0 = no effect, 100 = complete kill) at 62 g/ha (corn (Zea mays); Zea mays, post-emergence, Postemergence, 62 g ai/ha) | Corn plant response rating (crop injury, 0 = no effect, 100 = complete kill) at 125 g/ha (corn (Zea mays); Zea mays, post-emergence, Postemergence, 125 g ai/ha) | Corn plant response rating (crop injury, 0 = no effect, 100 = complete kill) at 250 g/ha (corn (Zea mays); Zea mays, post-emergence, Postemergence, 250 g ai/ha) | Corn plant response rating (crop injury, 0 = no effect, 100 = complete kill) at 500 g/ha (corn (Zea mays); Zea mays, post-emergence, Postemergence, 500 g ai/ha) | pest or weed control at 31 g/ha ([10]; Commelina virginica, post-emergence, Postemergence, 31 g ai/ha) | pest or weed control at 62 g/ha ([10]; Commelina virginica, post-emergence, Postemergence, 62 g ai/ha) | pest or weed control at 125 g/ha ([10]; Commelina virginica, post-emergence, Postemergence, 125 g ai/ha) | pest or weed control at 250 g/ha ([10]; Commelina virginica, post-emergence, Postemergence, 250 g ai/ha) | pest or weed control at 500 g/ha ([10]; Commelina virginica, post-emergence, Postemergence, 500 g ai/ha)
95: Waterhemp plant response rating ([5]; 125 g ai/ha)
98%: pest or weed control at 500 g/ha ([5]; Amaranthus tuberculatus, post-emergence, Postemergence, 500 g ai/ha)
90%: pest or weed control at 125 g/ha ([1]; Bidens pilosa, post-emergence, Postemergence, 125 g ai/ha) | pest or weed control at 125 g/ha ([5]; Amaranthus tuberculatus, post-emergence, Postemergence, 125 g ai/ha)
100: Waterhemp plant response rating ([5]; 250 g ai/ha) | Waterhemp plant response rating ([5]; 500 g ai/ha)
85: Waterhemp plant response rating ([5]; 62 g ai/ha)
80%: pest or weed control at 31 g/ha ([1]; Bidens pilosa, post-emergence, Postemergence, 31 g ai/ha) | pest or weed control at 31 g/ha ([5]; Amaranthus tuberculatus, post-emergence, Postemergence, 31 g ai/ha)
20%: plant injury at 500 g/ha (soybean (Glycine max); Glycine max, post-emergence, Postemergence, 500 g ai/ha)
5%: pest or weed control at 500 g/ha ([7]; Digitaria horizontalis, post-emergence, Postemergence, 500 g ai/ha, read-out: Plant response rating, Crabgrass, Brazil)
